Legend:
[1] = target: T1, Neuromedin-K receptor (Homo sapiens, UniProt P29371); experiment: Displacement of [3H]Lu AE93103 from human NK3 receptor expressed in BHK cells; type: cell-based
T1 sequence (P29371 whole entry): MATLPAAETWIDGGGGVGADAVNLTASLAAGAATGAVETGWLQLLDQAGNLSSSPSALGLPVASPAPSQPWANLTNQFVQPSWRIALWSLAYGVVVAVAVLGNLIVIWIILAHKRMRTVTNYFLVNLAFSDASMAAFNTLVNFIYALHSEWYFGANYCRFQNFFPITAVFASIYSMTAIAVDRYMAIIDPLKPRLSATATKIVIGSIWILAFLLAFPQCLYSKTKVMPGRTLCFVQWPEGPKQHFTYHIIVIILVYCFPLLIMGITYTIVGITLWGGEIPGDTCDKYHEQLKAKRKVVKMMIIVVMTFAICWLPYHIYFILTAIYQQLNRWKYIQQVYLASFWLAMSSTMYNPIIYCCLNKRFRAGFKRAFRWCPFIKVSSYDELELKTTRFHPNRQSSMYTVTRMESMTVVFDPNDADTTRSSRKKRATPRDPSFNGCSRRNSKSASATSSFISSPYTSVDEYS

[2] = target: Substance-P receptor (Homo sapiens, UniProt P25103); experiment: Displacement of [125I]SP from human cloned NK1 receptor
[3] = target: T2, Substance-K receptor (Homo sapiens, UniProt P21452); experiment: Displacement of [125I]NKA from human cloned NK2 receptor
T2 sequence (P21452 whole entry): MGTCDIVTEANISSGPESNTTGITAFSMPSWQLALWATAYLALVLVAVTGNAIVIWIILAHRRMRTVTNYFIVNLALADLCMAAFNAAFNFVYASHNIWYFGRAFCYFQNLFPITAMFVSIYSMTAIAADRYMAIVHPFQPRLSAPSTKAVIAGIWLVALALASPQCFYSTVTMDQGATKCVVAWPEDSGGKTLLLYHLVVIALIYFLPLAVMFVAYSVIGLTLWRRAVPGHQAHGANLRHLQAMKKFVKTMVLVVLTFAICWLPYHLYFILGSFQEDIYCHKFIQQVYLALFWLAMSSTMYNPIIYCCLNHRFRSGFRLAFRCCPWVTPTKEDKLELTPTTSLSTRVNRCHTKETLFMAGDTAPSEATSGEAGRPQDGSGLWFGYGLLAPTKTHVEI

[4] = system: Liver microsomes; experiment: Intrinsic clearance in human liver microsomes; type: ADME, Microsome
[5] = Apparent permeability of the compound in human Caco2 cells; type: ADME, cell-based; conditions: caco-2
[6] = system: Caco-2; experiment: Efflux ratio of permeability from […] in human Caco2 cells; type: ADME, cell-based
[7] = system: Liver microsomes; experiment: Intrinsic clearance in rat liver microsomes; type: ADME, Microsome
[8] = Oral bioavailability in rat; type: ADME, organism-based; conditions: in vivo
[9] = system: Gerbillinae; experiment: Reversal of senktide-induced explorative behavior in sc dosed gerbils compound pretreated 60 mins before senktide induction by […] assay; type: functional
[10] = Ratio of drug level in brain to plasma in sc dosed gerbils after 90 mins; type: ADME, organism-based; conditions: gerbillinae, read-out: BPR
[11] = Clearance in rat; type: ADME, organism-based; conditions: in vivo

Substance-P receptor, sequence (P25103 whole entry): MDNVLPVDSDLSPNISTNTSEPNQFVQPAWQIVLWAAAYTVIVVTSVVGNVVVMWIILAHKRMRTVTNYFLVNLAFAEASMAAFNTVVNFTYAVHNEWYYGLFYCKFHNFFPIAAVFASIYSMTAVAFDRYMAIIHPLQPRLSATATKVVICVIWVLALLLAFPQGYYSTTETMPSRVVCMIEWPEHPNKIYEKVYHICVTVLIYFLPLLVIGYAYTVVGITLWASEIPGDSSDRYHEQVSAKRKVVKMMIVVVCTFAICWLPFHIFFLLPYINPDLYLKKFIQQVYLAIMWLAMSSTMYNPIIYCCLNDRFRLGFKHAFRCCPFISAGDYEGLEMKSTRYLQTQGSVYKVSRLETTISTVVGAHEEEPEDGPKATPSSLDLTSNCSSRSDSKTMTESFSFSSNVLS

Ki [1] [nM]	Ki [2] [nM]	Ki [3] [nM]	CL [4] [L/min]	Papp [5] [×10⁻⁶ cm/s]	Ratio [6]	CL [7] [mL/min]	bioavailability [8] [%]	Kp at 1.5 h [10]	clearance [11] [mL/min/kg]	Structure (SMILES)	ED50 [9] [mg/kg]
5.9	130	88	3.5	5.6	2.6	–	–	–	–	CC(=O)NC1(c2ccccc2)CCN(C[C@@H]2C[C@@]2(C(=O)N(C)Cc2ccccc2)c2ccc(Cl)c(Cl)c2)CC1	–
7.6	340	75	> 20	25	1.5	210	< 5	1.9	108	CN(Cc1ccc(F)cc1)C(=O)[C@@]1(c2ccc(Cl)c(Cl)c2)C[C@H]1CN1CCN(S(=O)(=O)N(C)C)CC1	14.2

The next lines start with the compound.

Structure (SMILES)	Ki [1] [nM]	Ki [2] [nM]	Ki [3] [nM]	CL [4] [L/min]	Papp [5] [×10⁻⁶ cm/s]	Ratio [6]	CL [7] [mL/min]	bioavailability [8] [%]	Kp at 1.5 h [10]	clearance [11] [mL/min/kg]	ED50 [9] [mg/kg]
CN(Cc1ccc(F)cc1)C(=O)[C@@]1(c2ccc(Cl)c(Cl)c2)C[C@H]1CN1CCN(C(=O)CN2CCCC2)CC1	12	–	–	5.6	5.7	3.5	–	–	–	–	–
CCCNC[C@@H]1C[C@@]1(C(=O)N(C)Cc1ccc(F)cc1)c1ccc(Cl)c(Cl)c1	150	–	–	0.9	5.4	2.7	–	–	–	–	–
CC(C)NC[C@@H]1C[C@@]1(C(=O)N(C)Cc1ccc(F)cc1)c1ccc(Cl)c(Cl)c1	140	–	–	0.9	11	1.5	–	–	–	–	–

Reference: ChEMBL document CHEMBL1681655, “Identification of a new series of non-peptidic NK3 receptor antagonists” (Bioorg Med Chem Lett, 2011)
